Results as given in US20230131899A1, “INHIBITORS OF MICROBIALLY INDUCED AMYLOID” (Axial Therapeutics, Inc., priority 2020, published 2023).
Where two headings read alike, the source gives them in different places.

What was measured:
E. coli CsgA = target: T1, E. coli CsgA (Escherichia coli, UniProt P28307); assay: In vitro ThioflavinT assay of CsgA aggregation (CsgA ThT Assay); type: biochemical
T1 construct: made in house; host or cells: E. coli NEB 3016 slyD::kan, pET11d
Outline: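 Purified C-terminal His-tagged CsgA, monomerised by desalting and 30-kDa filtration, at 2-20 μM with 20-40 μM ThT in 50 mM potassium phosphate pH 7.3, 1% DMSO, compounds 3.125-200 uM; room temperature, fluorescence (ex 438/em 495 nm) read every 15 min. Background-subtracted signal expressed as percent inhibition versus vehicle at 6-6.5 or 8-9 h, or as percent control AUC.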

[1] = tested on: CsgA gene expression (csgBAC promoter-GFP reporter) in E. coli UTI89; assay: In vitro live cell fluorescent reporter assay of CsgA transcription (Reporter Assay); type: cell-based
Outline: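 Compounds at 0.14–100 μM (1% DMSO final) incubated 20 h at 27 °C in YESCA broth with UTI89 carrying a single-copy GFP reporter under the csgBAC intergenic promoter region, inoculum OD600 0.003. Fluorescence normalized to vehicle wells gave IC50 and 50%-of-vehicle concentration; OD600 reduction >10% flagged growth impact.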

[2] = read-out: Reporter Assay Abs IC50 (activity range), median Abs IC50 in the CsgA reporter assay, class symbol
[3] = read-out: CsgA ThT Assay (2 μM CsgA) % Control Bmax 25 μM, activity range, class symbol, CsgA 2 μM, white plates, compound 25 μM
[4] = read-out: CsgA ThT Assay (2 μM CsgA) % Control Bmax 25 μM, mean Bmax as percentage of DMSO control, CsgA 2 μM, white plates, compound 25 μM
[5] = read-out: CsgA ThT Assay (2 μM CsgA) % Control Bmax 100 μM, activity range, class symbol, CsgA 2 μM, white plates, compound 100 μM
[6] = read-out: CsgA ThT Assay (2 μM CsgA) % Control Bmax 100 μM, mean Bmax as percentage of DMSO control, CsgA 2 μM, white plates, compound 100 μM
[7] = Escherichia coli, read-out: Reporter Assay Abs IC50 (μM), median Abs IC50 in the CsgA reporter assay, N/A = maximum expression reduction is <50% of control
[8] = Escherichia coli, read-out: Reporter Assay Abs IC50, activity range, class symbol
[9] = read-out: CsgA ThT Assay (10 μM CsgA) % Control AUC at 1005 minutes, 25 μM (activity range), CsgA 10 μM, black plates, compound 25 μM, 1005 minutes, class symbol
[10] = read-out: CsgA ThT Assay (10 μM CsgA) % Control AUC at 1005 minutes, 25 μM, mean AUC as % of DMSO control, CsgA 10 μM, black plates, compound 25 μM, 1005 minutes
[11] = read-out: CsgA ThT Assay (10 μM CsgA) % Control AUC at 1005 minutes, 100 μM (activity range), CsgA 10 μM, black plates, compound 100 μM, 1005 minutes, class symbol
[12] = read-out: CsgA ThT Assay (10 μM CsgA) % Control AUC at 1005 minutes, 100 μM, mean AUC as % of DMSO control, CsgA 10 μM, black plates, compound 100 μM, 1005 minutes
[13] = Escherichia coli, read-out: Reporter Assay Abs IC50 (activity range), median Abs IC50 in the CsgA reporter assay, class symbol

T1 sequence (P28307 23-151): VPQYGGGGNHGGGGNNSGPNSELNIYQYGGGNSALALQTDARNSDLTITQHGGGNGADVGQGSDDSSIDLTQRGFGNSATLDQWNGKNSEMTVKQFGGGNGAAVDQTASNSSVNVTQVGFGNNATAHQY

Structure (SMILES) | remaining activity at 25 µM (E. coli CsgA; [3]) [%] | remaining activity at 25 µM (E. coli CsgA; [4]) [%] | remaining activity at 100 µM (E. coli CsgA; [5]) [%] | remaining activity at 100 µM (E. coli CsgA; [6]) [%] | IC50 [1, 7] [µM] | IC50 [1, 8] [µM] | remaining activity at 25 µM (E. coli CsgA; [9]) [%] | remaining activity at 25 µM (E. coli CsgA; [10]) [%] | remaining activity at 100 µM (E. coli CsgA; [11]) [%] | remaining activity at 100 µM (E. coli CsgA; [12]) [%] | IC50 [1, 13] [µM] | further results
CCCCCN1CC(C(=O)O)n2c(c(-c3cccc(C(F)(F)F)c3)c(Cc3cccc4ccccc34)cc2=O)S1(=O)=O (single isomer, unassigned) [Compound 025b, 8-(naphthalen-1-ylmethyl)-6-oxo-2-pentyl-9-(3-(trifluoromethyl)phenyl)-3,4-dihydro-2H,6H-pyrido[1,2-e][1,2,5]thiadiazine-4-carboxylic acid 1,1-dioxide] | – | – | – | – | – | – | – | – | – | – | – | CsgA ThT Assay (10 μM CsgA) % Control AUC at 1005 minutes, 25 μM (activity range) (E. coli CsgA; CsgA 10 μM, black plates, compound 25 μM, 1005 minutes, class symbol): (++) (% control AUC of 31 to 60%); CsgA ThT Assay (10 μM CsgA) % Control AUC at 1005 minutes, 100 μM (activity range) (E. coli CsgA; CsgA 10 μM, black plates, compound 100 μM, 1005 minutes, class symbol): (+) (% control AUC of greater than 60%); CsgA ThT Assay (10 μM CsgA) % Control AUC at 1005 minutes, 25 μM (E. coli CsgA; mean AUC as % of DMSO control, CsgA 10 μM, black plates, compound 25 μM, 1005 minutes): 46%; CsgA ThT Assay (10 μM CsgA) % Control AUC at 1005 minutes, 100 μM (E. coli CsgA; mean AUC as % of DMSO control, CsgA 10 μM, black plates, compound 100 μM, 1005 minutes): 107%; IC50 [1, 2]: 1.3 to 4.5 µM; IC50 ([1]; read-out: Reporter Assay Abs IC50, median Abs IC50 in the CsgA reporter assay, N/A = maximum expression reduction is <50% of control): 2.4 µM
O=C(O)C1CN(Cc2ccccc2)c2c(-c3ccc(Br)cc3)c(Cc3cccc4ccccc34)c(Cl)c(=O)n21 (stereo not shown) [Compound 201, 1-benzyl-8-(4-bromophenyl)-6-chloro-7-(naphthalen-1-ylmethyl)-5-oxo-1,2,3,5-tetrahydroimidazo[1,2-a]pyridine-3-carboxylic acid] | > 60 | 70 | 31 to 60 | 35 | 1.8 | 1.3 to 4.5 | – | – | – | – | – | –
Nc1c(Cc2cccc3ccccc23)c(-c2cccc(C(F)(F)F)c2)c2n(c1=O)C(C(=O)O)CN(C[C@@H](O)CO)S2(=O)=O (stereo partly drawn) [Compound 096, 7-amino-2-((R)-2,3-dihydroxypropyl)-8-(naphthalen-1-ylmethyl)-6-oxo-9-(3-(trifluoromethyl)phenyl)-3,4-dihydro-2H,6H-pyrido[1,2-e][1,2,5]thiadiazine-4-carboxylic acid 1,1-dioxide] | – | – | – | – | 22.9 | – | > 60 | 79 | > 60 | 71 | > 10 | –
Cn1c(=O)c2c(ncn2CCCCCCN2CC(C(=O)O)n3c(c(-c4cccc(C(F)(F)F)c4)c(Cc4cccc5ccccc45)cc3=O)S2(=O)=O)n(C)c1=O (stereo not shown) [Compound 035, 2-(6-(1,3-dimethyl-2,6-dioxo-1,2,3,6-tetrahydro-7H-purin-7-yl)hexyl)-8-(naphthalen-1-ylmethyl)-6-oxo-9-(3-(trifluoromethyl)phenyl)-3,4-dihydro-2H,6H-pyrido[1,2-e][1,2,5]thiadiazine-4-carboxylic acid 1,1-dioxide] | – | – | – | – | 1.5 | – | > 60 | 65 | – | – | 1.3 to 4.5 | –
Nc1c(Cc2cccc3ccccc23)c(-c2cccc(C(F)(F)F)c2)c2n(c1=O)C(C(=O)O)CS2 (single isomer, unassigned) [Compound 020a, 6-amino-7-(naphthalen-1-ylmethyl)-5-oxo-8-(3-(trifluoromethyl)phenyl)-2,3-dihydro-5H-thiazolo[3,2-a]pyridine-3-carboxylic acid] | – | – | – | – | 4.4 | – | 11 to 31 | 27 | 11 to 31 | 20 | – | IC50 [1, 2]: 1.3 to 4.5 µM
N#Cc1c(Cc2cccc3ccccc23)c(-c2cccc(C(F)(F)F)c2)c2n(c1=O)C(C(=O)O)CN2Cc1ccccc1 (stereo not shown) [Compound 185, 1-benzyl-6-cyano-7-(naphthalen-1-ylmethyl)-5-oxo-8-(3-(trifluoromethyl)phenyl)-1,2,3,5-tetrahydroimidazo[1,2-a]pyridine-3-carboxylic acid] | > 60 | 69 | > 60 | 91 | 1.8 | 1.3 to 4.5 | – | – | – | – | – | –
O=C(O)C1CN(Cc2ccccc2)c2c(-c3cccc(C(F)(F)F)c3)c(Cc3cccc4cnccc34)c(Cl)c(=O)n21 (stereo not shown) [Compound 212, 1-benzyl-6-chloro-7-(isoquinolin-5-ylmethyl)-5-oxo-8-(3-(trifluoromethyl)phenyl)-1,2,3,5-tetrahydroimidazo[1,2-a]pyridine-3-carboxylic acid] | > 60 | 64 | 31 to 60 | 56 | 13 | > 10 | – | – | – | – | – | –
CC(C)(C)c1cccc(Cc2c(-c3cccc(C(F)(F)F)c3)c3n(c(=O)c2Cl)C(C(=O)O)CN3Cc2ccccc2)c1 (stereo not shown) [Compound 215, 1-benzyl-7-(3-(tert-butyl)benzyl)-6-chloro-5-oxo-8-(3-(trifluoromethyl)phenyl)-1,2,3,5-tetrahydroimidazo[1,2-a]pyridine-3-carboxylic acid] | > 60 | 97 | > 60 | 61 | 1.3 | 1.3 to 4.5 | – | – | – | – | – | –
O=C(O)C1CN(C(CO)CO)S(=O)(=O)c2c(-c3cccc(C(F)(F)F)c3)c(Cc3cccc4ccccc34)cc(=O)n21 (stereo not shown) [Compound 106, 2-(1,3-dihydroxypropan-2-yl)-8-(naphthalen-1-ylmethyl)-6-oxo-9-(3-(trifluoromethyl)phenyl)-3,4-dihydro-2H,6H-pyrido[1,2-e][1,2,5]thiadiazine-4-carboxylic acid 1,1-dioxide] | – | – | – | – | 28.3 | – | > 60 | 95 | 31 to 60 | 38 | > 10 | –
CCCN1CC(C(=O)O)n2c(c(-c3cccc(C(F)(F)F)c3)c(Cc3cccc4ccccc34)c(C3CC3)c2=O)S1(=O)=O (stereo not shown) [Compound 132, 7-cyclopropyl-8-(naphthalen-1-ylmethyl)-6-oxo-2-propyl-9-(3-(trifluoromethyl)phenyl)-3,4-dihydro-2H,6H-pyrido[1,2-e][1,2,5]thiadiazine-4-carboxylic acid 1,1-dioxide] | > 60 | 76 | > 60 | 122 | 2.4 | 1.3 to 4.5 | – | – | – | – | – | –
CCN1CC(C(=O)O)n2c(c(-c3cccc(C(F)(F)F)c3)c(Cc3cccc4ccccc34)cc2=O)S1(=O)=O (racemic) [Compound 015, 2-ethyl-8-(naphthalen-1-ylmethyl)-6-oxo-9-(3-(trifluoromethyl)phenyl)-3,4-dihydro-2H,6H-pyrido[1,2-e][1,2,5]thiadiazine-4-carboxylic acid 1,1-dioxide] | – | – | – | – | 8 | – | 11 to 31 | 28 | 11 to 31 | 27 | 4.6 to 10 | –
NC(=O)c1c(Cc2cccc3ccccc23)c(-c2cccc(C(F)(F)F)c2)c2n(c1=O)C(C(=O)O)CN(CCCCO)S2(=O)=O (stereo not shown) [Compound 183, 7-carbamoyl-2-(4-hydroxybutyl)-8-(naphthalen-1-ylmethyl)-6-oxo-9-(3-(trifluoromethyl)phenyl)-3,4-dihydro-2H,6H-pyrido[1,2-e][1,2,5]thiadiazine-4-carboxylic acid 1,1-dioxide] | 31 to 60 | 32 | 11 to 31 | 26 | 0.8 | < 1.3 | – | – | – | – | – | –
O=C(O)C1CN(Cc2ccccc2)c2c(-c3cccc(C(F)(F)F)c3)c(Cc3ccnc4ccccc34)c(Cl)c(=O)n21 (stereo not shown) [Compound 206, 1-benzyl-6-chloro-5-oxo-7-(quinolin-4-ylmethyl)-8-(3-(trifluoromethyl)phenyl)-1,2,3,5-tetrahydroimidazo[1,2-a]pyridine-3-carboxylic acid] | > 60 | 64 | 31 to 60 | 54 | 13.2 | > 10 | – | – | – | – | – | –
